Results taken from ChEMBL document CHEMBL3044830, “Synthesis, characterization, antibacterial, antifungal, and immunomodulating activities of gatifloxacin derivatives” (Med Chem Res, 2010).

What was measured:
[1] = system: Bacillus subtilis; test: Antibacterial activity against Bacillus subtilis assessed as concentration required to obtain a zone of inhibition of 10 mm after 18 to 24 hr by disk diffusion method; type: functional
[2] = system: Escherichia coli; test: Antibacterial activity against Escherichia coli assessed as concentration required to obtain a zone of inhibition of 20 mm after 18 to 24 hr by disk diffusion method; type: functional
[3] = Antibacterial activity against Hofmanni bacterium assessed as concentration required to obtain a zone of inhibition of 10 mm after 18 to 24 hr by disc diffusion method
[4] = system: Bacillus subtilis; test: Antibacterial activity against Bacillus subtilis assessed as concentration required to obtain a zone of inhibition of 20 mm after 18 to 24 hr by disk diffusion method; type: functional
[5] = system: Fusarium solani; test: Antifungal activity against Fusarium solani assessed as concentration required to obtain a zone of inhibition of 20 mm after 7 days by disk diffusion method; type: functional
[6] = system: Citrobacter; test: Antibacterial activity against Citrobacter assessed as concentration required to obtain a zone of inhibition of 5 mm after 18 to 24 hr by disk diffusion method; type: functional
[7] = system: Saccharomyces cerevisiae; test: Antifungal activity against Saccharomyces cerevisiae assessed as zone of inhibition at 5 to 40 ug/ml after 7 days by disk diffusion method relative to gatifloxacin; type: functional
[8] = system: Trichophyton rubrum; test: Antifungal activity against Trichophyton rubrum assessed as concentration required to obtain a zone of inhibition of 20 mm after 7 days by disk diffusion method; type: functional
[9] = system: Fusarium solani; test: Antifungal activity against Fusarium solani assessed as concentration required to obtain a zone of inhibition of 40 mm after 7 days by disk diffusion method; type: functional
[10] = system: Candida albicans; test: Antifungal activity against Candida albicans assessed as zone of inhibition at 5 to 40 ug/ml after 7 days by disk diffusion method relative to gatifloxacin; type: functional
[11] = system: Pseudomonas aeruginosa; test: Antibacterial activity against Pseudomonas aeruginosa assessed as concentration required to obtain a zone of inhibition of 10 mm after 18 to 24 hr by disk diffusion method; type: functional
[12] = system: Bacillus subtilis; test: Antibacterial activity against Bacillus subtilis assessed as concentration required to obtain a zone of inhibition of 5 mm after 18 to 24 hr by disk diffusion method; type: functional
[13] = system: Klebsiella pneumoniae; test: Antibacterial activity against Klebsiella pneumoniae assessed as concentration required to obtain a zone of inhibition of 20 mm after 18 to 24 hr by disk diffusion method; type: functional
[14] = system: Klebsiella pneumoniae; test: Antibacterial activity against Klebsiella pneumoniae assessed as concentration required to obtain a zone of inhibition of 5 mm after 18 to 24 hr by disk diffusion method; type: functional
[15] = Antibacterial activity against Hofmanni bacterium assessed as concentration required to obtain a zone of inhibition of 20 mm after 18 to 24 hr by disc diffusion method
[16] = system: Proteus mirabilis; test: Antibacterial activity against Proteus mirabilis assessed as concentration required to obtain a zone of inhibition of 20 mm after 18 to 24 hr by disc diffusion method; type: functional
[17] = system: Shigella sp.; test: Antibacterial activity against Shigella typhi assessed as concentration required to obtain a zone of inhibition of 5 mm after 18 to 24 hr by disc diffusion method; type: functional
[18] = system: Klebsiella pneumoniae; test: Antibacterial activity against Klebsiella pneumoniae assessed as concentration required to obtain a zone of inhibition of 10 mm after 18 to 24 hr by disk diffusion method; type: functional
[19] = system: Candida albicans; test: Antifungal activity against Candida albicans assessed as concentration required to obtain a zone of inhibition of 40 mm after 7 days by disk diffusion method; type: functional
[20] = system: Proteus mirabilis; test: Antibacterial activity against Proteus mirabilis assessed as concentration required to obtain a zone of inhibition of 10 mm after 18 to 24 hr by disc diffusion method; type: functional
[21] = system: Shigella flexneri; test: Antibacterial activity against Shigella flexneri assessed as zone of inhibition at 5 to 40 ug/ml after 18 to 24 hr by disk diffusion method relative to gatifloxacin; type: functional
[22] = system: Trichophyton rubrum; test: Antifungal activity against Trichophyton rubrum assessed as zone of inhibition at 5 to 40 ug/ml after 7 days by disk diffusion method relative to gatifloxacin; type: functional
[23] = system: Citrobacter; test: Antibacterial activity against Citrobacter assessed as zone of inhibition at 5 to 40 ug/ml after 18 to 24 hr by disk diffusion method relative to gatifloxacin; type: functional
[24] = system: Proteus mirabilis; test: Antibacterial activity against Proteus mirabilis assessed as concentration required to obtain a zone of inhibition of 5 mm after 18 to 24 hr by disc diffusion method; type: functional
[25] = system: Pseudomonas aeruginosa; test: Antibacterial activity against Pseudomonas aeruginosa assessed as concentration required to obtain a zone of inhibition of 5 mm after 18 to 24 hr by disk diffusion method; type: functional
[26] = system: Citrobacter; test: Antibacterial activity against Citrobacter assessed as concentration required to obtain a zone of inhibition of 20 mm after 18 to 24 hr by disk diffusion method; type: functional
[27] = system: Shigella flexneri; test: Antibacterial activity against Shigella flexneri assessed as concentration required to obtain a zone of inhibition of 10 mm after 18 to 24 hr by disk diffusion method; type: functional
[28] = system: Pseudomonas aeruginosa; test: Antibacterial activity against Pseudomonas aeruginosa assessed as concentration required to obtain a zone of inhibition of 20 mm after 18 to 24 hr by disk diffusion method; type: functional
[29] = system: Candida albicans; test: Antifungal activity against Candida albicans assessed as concentration required to obtain a zone of inhibition of 20 mm after 7 days by disk diffusion method; type: functional
[30] = system: Shigella flexneri; test: Antibacterial activity against Shigella flexneri assessed as concentration required to obtain a zone of inhibition of 20 mm after 18 to 24 hr by disk diffusion method; type: functional
[31] = system: Proteus mirabilis; test: Antibacterial activity against Proteus mirabilis assessed as zone of inhibition at 5 to 40 ug/ml after 18 to 24 hr by disc diffusion method relative to gatifloxacin; type: functional
[32] = system: Staphylococcus aureus; test: Antibacterial activity against methicillin-resistant Staphylococcus aureus assessed as zone of inhibition at 5 to 40 ug/ml after 18 to 24 hr by disk diffusion method relative to gatifloxacin; type: functional
[33] = Antibacterial activity against Hofmanni bacterium assessed as zone of inhibition after 18 to 24 hr by disc diffusion method relative to gatifloxacin
[34] = system: Citrobacter; test: Antibacterial activity against Citrobacter assessed as concentration required to obtain a zone of inhibition of 10 mm after 18 to 24 hr by disk diffusion method; type: functional
[35] = system: Bacillus subtilis; test: Antibacterial activity against Bacillus subtilis assessed as zone of inhibition at 5 to 40 ug/ml after 18 to 24 hr by disk diffusion method relative to gatifloxacin; type: functional
[36] = system: Trichophyton rubrum; test: Antifungal activity against Trichophyton rubrum assessed as concentration required to obtain a zone of inhibition of 40 mm after 7 days by disk diffusion method; type: functional
[37] = system: Shigella sp.; test: Antibacterial activity against Shigella typhi assessed as zone of inhibition after 18 to 24 hr by disc diffusion method relative to gatifloxacin; type: functional
[38] = system: Fusarium solani; test: Antifungal activity against Fusarium solani assessed as zone of inhibition at 5 to 40 ug/ml after 7 days by disk diffusion method relative to gatifloxacin; type: functional
[39] = system: Klebsiella pneumoniae; test: Antibacterial activity against Klebsiella pneumoniae assessed as zone of inhibition at 5 to 40 ug/ml after 18 to 24 hr by disk diffusion method relative to gatifloxacin; type: functional
[40] = system: Escherichia coli; test: Antibacterial activity against Escherichia coli assessed as zone of inhibition at 5 to 40 ug/ml after 18 to 24 hr by disk diffusion method relative to gatifloxacin; type: functional
[41] = system: Shigella flexneri; test: Antibacterial activity against Shigella flexneri assessed as concentration required to obtain a zone of inhibition of 5 mm after 18 to 24 hr by disk diffusion method; type: functional
[42] = system: Pseudomonas aeruginosa; test: Antibacterial activity against Pseudomonas aeruginosa assessed as zone of inhibition at 5 to 40 ug/ml after 18 to 24 hr by disk diffusion method relative to gatifloxacin; type: functional
[43] = system: Escherichia coli; test: Antibacterial activity against Escherichia coli assessed as concentration required to obtain a zone of inhibition of 5 mm after 18 to 24 hr by disk diffusion method; type: functional
[44] = system: Escherichia coli; test: Antibacterial activity against Escherichia coli assessed as concentration required to obtain a zone of inhibition of 10 mm after 18 to 24 hr by disk diffusion method; type: functional
[45] = Antibacterial activity against Hofmanni bacterium assessed as concentration required to obtain a zone of inhibition of 5 mm after 18 to 24 hr by disc diffusion method

Work on `C[C@@H]1CN(c2c(F)c(N)c3c(=O)c(C(=O)O)cn(C4CC4)c3c2F)C[C@H](C)N1` [SPARFLOXACIN] yielded an Activity [1] of 13 µg/mL, an Activity [2] of 14 µg/mL and an Activity [3] of 13 µg/mL. For the same compound, the Activity [4] was 15 µg/mL, the Activity [5] was 10 µg/mL and the Activity [6] was 8 µg/mL. For the same compound, the “inhibition zone (IZ)” value [7] was 0%, the Activity [8] was 20 µg/mL and the Activity [9] was 11 µg/mL. For the same compound, the “inhibition zone (IZ)” value [10] was 176%, the Activity [11] was 13 µg/mL and the Activity [12] was 12 µg/mL. For the same compound, the Activity [13] was 16 µg/mL, the Activity [14] was 10 µg/mL and the Activity [15] was 14 µg/mL. The Activity [16] was 15 µg/mL, the Activity [17] was 9 µg/mL and the Activity [18] was 13 µg/mL. For the same compound, the Activity [19] was 17 µg/mL, the Activity [20] was 12 µg/mL and the “inhibition zone (IZ)” value [21] was 75.1%. For the same compound, the “inhibition zone (IZ)” value [22] was 169%, the “inhibition zone (IZ)” value [23] was 42.73% and the Activity [24] was 10 µg/mL. For the same compound, the Activity [25] was 11 µg/mL, the Activity [26] was 10 µg/mL and the Activity [27] was 11 µg/mL. For the same compound, the Activity [28] was 15 µg/mL, the Activity [29] was 13 µg/mL and the Activity [30] was 13 µg/mL. For the same compound, the “inhibition zone (IZ)” value [31] was 90%, the “inhibition zone (IZ)” value [32] was 77.2% and the “inhibition zone (IZ)” value [33] was 110%. The Activity [34] was 9 µg/mL, the “inhibition zone (IZ)” value [35] was 94.6% and the Activity [36] was 24 µg/mL. For the same compound, the “inhibition zone (IZ)” value [37] was 87%, the “inhibition zone (IZ)” value [38] was 70% and the “inhibition zone (IZ)” value [39] was 96.1%. The “inhibition zone (IZ)” value [40] was 98.01%, the Activity [41] was 9 µg/mL and the “inhibition zone (IZ)” value [42] was 117.6%. It also gave an Activity [43] of 9 µg/mL, an Activity [44] of 11 µg/mL and an Activity [45] of 11 µg/mL.
